Literature values in publication PMC12073449, “Development of a Mechanism of Action-Reflective Cell-Based Reporter Gene Assay for Measuring Bioactivities of Therapeutic Glucagon-like Peptide-2 Analogues” (Molecules, 2025).
Ends that are not written are not given here.

Parameters: method as in PMID 35933503
Details: general statement; cited from earlier work
Description: The diverse functions of GLP-2 highlight its significance in maintaining intestinal health and physiology. As a naturally occurring gut hormone, GLP-2 not only promotes nutrient absorption by decreasing intestinal motility and permeability, but also plays a pivotal role in stimulating intestinal epithelial cell growth and function. This multifaceted action of GLP-2 is crucial for the maintenance of the intestinal barrier, which is essential for preventing the translocation of harmful bacteria and toxins into the bloodstream.

## HGEGTFSSELATILDALAARDFINWLIATKITDKKKKKK-NH2 [glepaglutide]
  bioactivity: enhanced bioactivities
  half-life: extended half-lives
